The subject of one data set is Klebsiella pneumoniae. It is filed as cell-based.
Data set [1] relates to Salmonella typhi ATCC14028. It is filed as cell-based.
The next data set concerns human erythrocytes. It is filed as cell-based. The source says: The detergent Tween was used as a positive control, causing 100% lysis of RBCs.

In brackets after ≈: the same amount, converted by molar mass. Non-standard residues stand in square brackets, D forms with d. Residues, ends and D or L forms follow the SMILES beside them. No end group written: not given here. PEG3 = NCCOCCOCCOCCC(=O)O; AEEA = NCCOCCOCC(=O)O

Procedure for B. cereus: (§1) Bacteria were grown in a shaking incubator at 37° C. and 160rpm in 50 ml BHI , using individual colonies retrieved from a fresh overnight TSA-sheep blood plate. The cultures were grown to a density of approximately 1×10^8cells/ml and then diluted to 5×10^5 cells/ml in CAMHB (Mc Farland 0.5). Each well contained 100p.I (50p.I of peptide containing MHB plus 50 μl inoculum). The final cell density was 1×10^5 to 5×10^5/ml. After addition of the cell suspension, plates were incubated at 37° C. for 18 to 24 hours. The optical density at 590 nm (OD590) of each well was measured after 5 seconds of shaking the plate using Perkin Elmer spectrophotometer (1420 Multilabel Counter Vicotr 3). […] Each well, where no growth was observed, was also plated on TSA-sheep blood agar plates, incubated at 37° C. overnight and visually inspected.
(§2) A microbroth dilution method was used with twofold serial dilutions in CAMHB (according to EMEA guidelines) was used for screening of peptide activity, with concentrations ranging from 0.3 μg/mIto 200 μg/ml.
Procedure for Corynebacterium: as §1, §2
Procedure for E. coli: as §1, §2
Procedure for E. faecalis: as §1, §2
Procedure for Nocardia asteroides: as §1, §2
Procedure for S. aureus: as §1, §2
Procedure for S. epidermidis: as §1, §2
Procedure for S. hominis: as §1, §2

Take RRILLLIARPPRILLGAIRR [mtop_12]: the values for the MIC value with S. aureus and against S. epidermidis were greater than 200 µg/mL and 12.5 µg/mL, respectively.
Turning to RRILGLIARPPRIAFVILRR [mtop_18], the figures for the MIC value against S. aureus and in the data set with S. epidermidis were less than 200 µg/mL and 50 µg/mL, respectively.
On the same counts, the results for RRLLGLIIRPPRAIALTLRR [mtop_17] are 50 µg/mL and 100 µg/mL.
The matching figures for RRIILFILRPPRLILFLGRR [mtop_1]: 200 µg/mL and 50 µg/mL.
Regarding `CC[C@@H](C)[C@@H](NC(=O)[C@H](N)CCCNC(=N)N)C(=O)N[C@H](CC(C)C)C(=O)N[C@H](CC(C)C)C(=O)NCC(=O)N[C@H](CC(C)C)C(=O)N[C@@H](C(=O)N[C@H](CCCNC(=N)N)C(=O)N[C@H](CCCNC(=N)N)C(=O)NCC(=O)N[C@H](CO)C(=O)N[C@H](CCCNC(=N)N)C(=O)N[C@@H](C(=O)N[C@H](CC(C)C)C(=O)N[C@H](CC(C)C)C(=O)NCC(=O)N[C@H](CC(C)C)C(=O)N[C@@H](C(=O)N[C@H](CCCNC(=N)N)C(=O)N[C@H](CCCNC(=N)N)C(=O)O)[C@H](C)CC)[C@H](C)CC)[C@H](C)CC` [DAA] (H-[dR][dI][dL][dL]G[dL][dI][dR][dR]G[dS][dR][dI][dL][dL]G[dL][dI][dR][dR]-OH; N-terminus and C-terminus assumed), the “Minimum inhibitory concentrations MIC90” value was 25 µg/mL (≈ 10.7 µM) in the data set on Klebsiella pneumoniae; 100 µg/mL (≈ 42.6 µM) in data set [1]; 1.5 µg/mL (≈ 0.64 µM) in the data set with S. epidermidis; 6 µg/mL (≈ 2.56 µM) in the data set with B. cereus; greater than 200 µg/mL with Corynebacterium; 25 µg/mL (≈ 10.7 µM) in the data set with E. coli. The “Minimum inhibitory concentrations MIC90” value in the data set with E. faecalis is 6 µg/mL (≈ 2.56 µM); with S. hominis, 1.5 µg/mL (≈ 0.64 µM); in the data set with Nocardia asteroides, greater than 200 µg/mL.
On to RRILLGLIRPPRTIIGLVRR [mtop_11], for which the MIC value against S. aureus was greater than 200 µg/mL; with S. epidermidis it was 12.5 µg/mL.
With RFFIGLSRRGSRIQAYLYRR [Hit50A], in the data set on S. aureus, the “MIC values against MRSA 326” value is 50 µg/mL and the “MIC values against S.aureus ATCC 29213” value was found to be 100 µg/mL. For the same compound, the “MIC values against B.cereus ATCC” value in the data set with B. cereus was 50 µg/mL.
As to `CC[C@H](C)[C@H](NC(=O)[C@H](CC(C)C)NC(=O)CNC(=O)[C@H](CC(C)C)NC(=O)[C@H](CC(C)C)NC(=O)[C@@H](NC(=O)[C@H](CCCNC(=N)N)NC(=O)COCCOCCNC(=O)[C@H](CCCNC(=N)N)NC(=O)[C@H](CCCNC(=N)N)NC(=O)[C@@H](NC(=O)[C@H](CC(C)C)NC(=O)CNC(=O)[C@H](CC(C)C)NC(=O)[C@H](CC(C)C)NC(=O)[C@@H](NC(=O)[C@@H](N)CCCNC(=N)N)[C@@H](C)CC)[C@@H](C)CC)[C@@H](C)CC)C(=O)N[C@@H](CCCNC(=N)N)C(=O)N[C@@H](CCCNC(=N)N)C(N)=O` [P2175/P2] (H-RILLGLIRR[AEEA]RILLGLIRR-NH2), the “Minimum inhibitory concentrations MIC90” value in the data set with Klebsiella pneumoniae is 100 µg/mL (≈ 42.6 µM); in data set [1], 25 µg/mL (≈ 10.7 µM); with S. epidermidis, 6 µg/mL (≈ 2.56 µM); in the data set on B. cereus, 12.5 µg/mL (≈ 5.33 µM); with Corynebacterium, greater than 200 µg/mL; in the data set with E. coli it was 50 µg/mL (≈ 21.3 µM). Also, the “Minimum inhibitory concentrations MIC90” value in the data set on E. faecalis is 6 µg/mL (≈ 2.56 µM); in the data set with S. hominis, 1.5 µg/mL (≈ 0.64 µM); in the data set on Nocardia asteroides it was 6 µg/mL (≈ 2.56 µM).
As for RRWVSMLLRRGSRWVSMLLRR [Hit14], the “MIC values against S.epidermidis ATCC 12228” value against S. epidermidis was 50 µg/mL. The “MIC values against B.cereus ATCC” value against B. cereus was found to be 100 µg/mL.
With `CC[C@H](C)[C@H](NC(=O)[C@H](CC(C)C)NC(=O)CNC(=O)[C@H](CC(C)C)NC(=O)[C@H](CC(C)C)NC(=O)[C@@H](NC(=O)[C@H](CCCNC(=N)N)NC(=O)[C@H](CO)NC(=O)CNC(=O)[C@H](CCCNC(=N)N)NC(=O)[C@H](CCCNC(=N)N)NC(=O)[C@@H](NC(=O)[C@H](CC(C)C)NC(=O)CNC(=O)[C@H](CC(C)C)NC(=O)[C@H](CC(C)C)NC(=O)[C@@H](NC(=O)[C@H](CCCNC(=N)N)NC(=O)CCOCCOCCOCCN)[C@@H](C)CC)[C@@H](C)CC)[C@@H](C)CC)C(=O)N[C@@H](CCCNC(=N)N)C(=O)N[C@@H](CCCNC(=N)N)C(=O)O` [P2154] (H-[PEG3]RILLGLIRRGSRILLGLIRR-OH), the “Minimum inhibitory concentrations MIC90” value was 100 µg/mL (≈ 39.2 µM) with Klebsiella pneumoniae; greater than 200 µg/mL in data set [1]; 12.5 µg/mL (≈ 4.91 µM) with S. epidermidis; 12.5 µg/mL (≈ 4.91 µM) in the data set with B. cereus; 50 µg/mL (≈ 19.6 µM) with E. coli; 12.5 µg/mL (≈ 4.91 µM) with E. faecalis. The entries for the “Minimum inhibitory concentrations MIC90” value in the data set with S. hominis and with Nocardia asteroides were 3 µg/mL (≈ 1.18 µM) and 6 µg/mL (≈ 2.35 µM), respectively.
On to `CC[C@H](C)[C@H](NC(=O)[C@H](CC(C)C)NC(=O)CNC(=O)[C@H](CC(C)C)NC(=O)[C@H](CC(C)C)NC(=O)[C@@H](NC(=O)[C@H](CCCNC(=N)N)NC(=O)[C@H](CO)NC(=O)CNC(=O)[C@H](CCCNC(=N)N)NC(=O)[C@H](CCCNC(=N)N)NC(=O)[C@@H](NC(=O)[C@H](CC(C)C)NC(=O)CNC(=O)[C@H](CC(C)C)NC(=O)[C@H](CC(C)C)NC(=O)[C@@H](NC(=O)[C@H](CCCNC(=N)N)NC(=O)COCCOCCN)[C@@H](C)CC)[C@@H](C)CC)[C@@H](C)CC)C(=O)N[C@@H](CCCNC(=N)N)C(=O)N[C@@H](CCCNC(=N)N)C(=O)O` [P2153] (H-[AEEA]RILLGLIRRGSRILLGLIRR-OH), for which the “Minimum inhibitory concentrations MIC90” value in the data set on Klebsiella pneumoniae was 50 µg/mL (≈ 20.1 µM); in [1], greater than 200 µg/mL; in the data set on S. epidermidis, 12.5 µg/mL (≈ 5.02 µM); with B. cereus it was 6 µg/mL (≈ 2.41 µM); with E. coli, 25 µg/mL (≈ 10 µM); with E. faecalis it was 25 µg/mL (≈ 10 µM). In addition, the “Minimum inhibitory concentrations MIC90” value amounted to 3 µg/mL (≈ 1.2 µM) with S. hominis and 6 µg/mL (≈ 2.41 µM) with Nocardia asteroides.
For RLFNFLKRGSRLFNFLKR [C29/Hit11], the hemolytic activity entry in the data set on human erythrocytes was “no significant hemolytic activity at clinically relevant concentrations”. In addition, in the data set on S. aureus, the “MIC values against MRSA 326” value came to 12.5 µg/mL and the “MIC values against S.aureus ATCC 29213” value was in the range of 12.5 to 25 µg/mL. Besides, in the data set with B. cereus, the “MIC values against B.cereus ATCC” value fell in the range of 6 to 12.5 µg/mL. The “MIC values against Corynebacterium” value in the data set with Corynebacterium was determined as 6 µg/mL.
With H-RILLGLIRRGSRILLGLIRR-OH [P2151], the “Minimum inhibitory concentrations MIC90” value in the data set with Klebsiella pneumoniae worked out at 25 µg/mL; in [1], 100 µg/mL; in the data set with S. epidermidis, 12.5 µg/mL; in the data set with B. cereus it was 12.5 µg/mL; in the data set on E. coli, 25 µg/mL; in the data set with E. faecalis, 25 µg/mL. In addition, the “Minimum inhibitory concentrations MIC90” value was 3 µg/mL in the data set on S. hominis and 12.5 µg/mL in the data set with Nocardia asteroides.
Consider RRIIGIIARPPRVLVTLLRR [mtop_22], for which the values for the MIC value in the data set with S. aureus and in the data set with S. epidermidis were less than 200 µg/mL and 50 µg/mL, respectively.
With RWVSMLLRRGSRVGYVIARR [Hit37], in the data set on S. aureus, the “MIC values against MRSA 326” value worked out at 100 µg/mL and the “MIC values against S.aureus ATCC 29213” value is 100 µg/mL. Moreover, the “MIC values against B.cereus ATCC” value with B. cereus is greater than 100 µg/mL.
With Ac-RILLGLIRRGSRILLGLIRR-NH2 [P2170/P2], the “Minimum inhibitory concentrations MIC90” value was greater than 200 µg/mL with Klebsiella pneumoniae; 100 µg/mL in data set [1]; 12.5 µg/mL in the data set with S. aureus; 12.5 µg/mL in the data set with S. epidermidis; 6 µg/mL in the data set on B. cereus; 100 µg/mL in the data set with Corynebacterium. The “Minimum inhibitory concentrations MIC90” value turned out to be 25 µg/mL in the data set on E. coli, 12.5 µg/mL with E. faecalis, 3 µg/mL in the data set with S. hominis and 3 µg/mL with Nocardia asteroides.
On to Ac-RILLGLIRRGSRILLGLIRR-NH2 [P2170/P1], for which the “Minimum inhibitory concentrations MIC90” value with Klebsiella pneumoniae is greater than 200 µg/mL; in data set [1], 100 µg/mL; in the data set with S. aureus it was 12.5 µg/mL; in the data set on S. epidermidis, 6 µg/mL; in the data set with B. cereus, 6 µg/mL; with Corynebacterium, greater than 200 µg/mL. The “Minimum inhibitory concentrations MIC90” value in the data set on E. coli worked out at 25 µg/mL; in the data set with E. faecalis it was 12.5 µg/mL; in the data set with S. hominis, 3 µg/mL; with Nocardia asteroides it was 6 µg/mL.
Take `CC[C@H](C)[C@H](NC(=O)[C@H](CC(C)C)NC(=O)CNC(=O)[C@H](CC(C)C)NC(=O)[C@H](CC(C)C)NC(=O)[C@@H](NC(=O)[C@H](CCCNC(=N)N)NC(=O)COCCOCCNC(=O)[C@H](CCCNC(=N)N)NC(=O)[C@H](CCCNC(=N)N)NC(=O)[C@@H](NC(=O)[C@H](CC(C)C)NC(=O)CNC(=O)[C@H](CC(C)C)NC(=O)[C@H](CC(C)C)NC(=O)[C@@H](NC(=O)[C@@H](N)CCCNC(=N)N)[C@@H](C)CC)[C@@H](C)CC)[C@@H](C)CC)C(=O)N[C@@H](CCCNC(=N)N)C(=O)N[C@@H](CCCNC(=N)N)C(N)=O` [P2175/P1] (H-RILLGLIRR[AEEA]RILLGLIRR-NH2): the “Minimum inhibitory concentrations MIC90” value was 50 µg/mL (≈ 21.3 µM) with Klebsiella pneumoniae; 50 µg/mL (≈ 21.3 µM) in data set [1]; 12.5 µg/mL (≈ 5.33 µM) with S. epidermidis; 12.5 µg/mL (≈ 5.33 µM) in the data set with B. cereus; greater than 200 µg/mL with Corynebacterium; 25 µg/mL (≈ 10.7 µM) in the data set with E. coli. For the same compound, the “Minimum inhibitory concentrations MIC90” value in the data set with E. faecalis stood at 12.5 µg/mL (≈ 5.33 µM); with S. hominis it was 3 µg/mL (≈ 1.28 µM); in the data set on Nocardia asteroides, 3 µg/mL (≈ 1.28 µM).

The values above are taken from patent US20220033448A1, “METHODS FOR AGGREGATION OF PROTEINS” (priority 2011, published 2022).
